Data from patent US6403647B1, “Pulsed administration of compositions for the treatment of blood disorders” (priority 1996, dated 2002).
Entries after “also recorded” stand apart in the source; their conditions may differ.

Assays:
Assay type in all cases: in vivo, human
[1] = Continuous 24 hour per day infusions in sickle cell disease and beta thalassemia patients
Method: Continuous 24 hour per day infusions of was administered in another study to 10 patients with sickle cell disease and beta thalassemia and produced rises in fetal globin in a lower proportion of patients, 40%. Many of these responses were not sustained.
Therefore, the same infusion rate given for 24 hours/day results in a lower response rate than does 8-16 hour/day treatment at the same infusion rate. A lower proportions of patients respond hematologically with continuous 24 hours therapy (1/10 patients) than respond to intermittent pulse therapy 8/10 patients. Hematologic responses are higher with pulse therapy (2-5) gram/dl above baseline levels compared to no responses in patients treated with 24 hour therapy.

[2] = Weekly versus pulse butyrate therapy in sickle cell and beta thalassemia patients; design: F-retics On / F-cells On: unit not given here
Method: To determine if arginine butyrate can be used for therapeutic benefit, two low-dose regimens of butyrate were studied. Treatment were given intermittently either weekly, or in a pulse fashion, at 2-3 week intervals. […]
Patients were treated by pulse therapy for 4-18 months with arginine butyrate. […] It is preferred to avoid prolonged treatment with high doses of butyrate, which cause cellular growth arrest in G1, and can enhance the accelerated apoptosis of beta thalassemia. Partial tolerance observed with long-term weekly therapy appears related to erythroid cell growth arrest and a decline in EPO levels as Hgb and Hct rise and depletion of available iron stores. Treatment with additional doses of iron supplements can overcome some of the anti-proliferative activities of butyrate in vitro. Time required on therapy has been only 25%-35% of the treatment days per month necessary for effective transfusion and iron chelation. This has improved the quality of life of some patients.
To determine if these potentially opposing actions can be balanced for therapeutic effect, two intermittent schedules of butyrate were compared in 21 treatment courses in 14 patients ages 3 to 55 years, with sickle cell disease or β thalassemia. An optimal dose was identified on an individual patient regimen and continued on a weekly basis in eleven patients. Providing 7 to 14 days without any drug exposure to facilitate proliferation of treated cells, an alternate week regimen or pulse therapy, was administered to twelve patients (see Tables V, VI and VI).
A series of ten patients with sickle cell anemia and β-thalassemia were treated with continuous therapy with arginine butyrate. In 3 out of 4, transfusion requirement was diminished. […] The mean peak in total HgB which was detectable in the ten patients over their baseline was 1.6 gm/dl.
Patients were next administered a pulse therapy regimen. Each session comprised eight to twelve hours of nightly infusions. […] Total increases in Hgb were sustained as high as 3.0 g/dl above baseline levels with a mean increase of 2.1 g/dl in 8 out of 12 patients (p<0.05, paired t-test, chi square).

[3] = Conventional versus pulse treatment of a sickle cell patient
Method: Conventional treatment: A patient with sickle cell disease was tested with arginine butyrate at 750 mg/kg. Drug was administered by infusion for 10-16 hours per day and 5 days/week. […] After 150 days, total HbF declined to about 10%.
Pulse treatment: Treatment of the same sickle cell patient as above was changed from weekly to pulse administration of arginine butyrate about one year later (FIG. 5B). Arginine butyrate was administered by infusion at 500 to 750 mg/kg for 4 days for about 10-16 hours per day. After the 4 day regimen, drug was withheld for 10 days before treatment was repeated. This regimen was continued for about 5 months and percent total fetal hemoglobin increased to over 20%. This level was maintained until treatment was discontinued. Hemoglobin F levels above 20% are generally considered to be sufficient to eliminate symptoms associated with sickle cell disease.

[4] = pulse therapy, 4/6 severe thalassemia patients
[5] = weekly therapy, patient Hb SS, 24 weeks
[6] = weekly therapy, patient HbSS, 4 weeks
[7] = weekly therapy, patient frameshift 5, 5 weeks
[8] = weekly therapy, patient β-39,-39, 8 weeks
[9] = weekly therapy, patient βIVS I, 1-6, 40 weeks

arginine butyrate
proportion of patients with rises in fetal globin ([1]; continuous 24 hour per day infusions, 10 patients): 40% | patients responding hematologically ([1]; continuous 24 hours therapy): 1/10 | fetal hemoglobin levels ([2]; 4 days, infusions about 8 hours per day, followed by 7 days of no treatment): rise substantially | patients with diminished transfusion requirement ([2]; continuous therapy): 3 out of 4 | mean peak in total HgB over baseline ([2]; continuous therapy, ten patients): 1.6 gm/dl | patients responding hematologically ([2]; intermittent pulse therapy): 8/10 | transfusion-dependency ([2]; pulse regimen, thalassemia major): eliminated previous transfusion-dependency; also recorded: Transfusion-dependency was eliminated | hematologic responses above baseline levels ([2]; pulse therapy): 2-5 gram/dl | patients with fetal globin genes reactivated to a hematologically compensating degree ([2]; pulse therapy for 4-18 months): 8 out of 12 | total increases in Hgb above baseline, sustained ([2]; pulse therapy regimen): ≤ 3.0 g/dL | mean increase in Hgb above baseline ([2]; pulse therapy regimen, 8 out of 12 patients): 2.1 g/dL | increase in total Hb levels [2, 4]: 2-3 grams/dl | total Hb level reached [2, 4]: > 9.0 gm/dl | Hb F reached ([2]; pulse therapy, patient): 29% | Increase in Total Hgb ([2]; pulse therapy, patient HbE/?, 15 weeks): 1.7 g/dL | Non-∀/∀* On (non-α: α globin chain synthesis ratios) ([2]; pulse therapy, patient HbE/?, 15 weeks, Base 0.17): 0.25 | F-cells On ([2]; pulse therapy, patient HbE/?, 15 weeks, Base 79): 84 | Percent HbF On ([2]; pulse therapy, patient HbSS, 7 weeks, Base 0.5): 1.5% | F-retics On ([2]; pulse therapy, patient HbSS, 7 weeks, Base 8): 9.3 | F-cells On ([2]; pulse therapy, patient HbSS, 7 weeks, Base 11): 8 | Percent HbF On ([2]; pulse therapy, patient HbSS, 9 weeks, Base 0.5): 1.0% | F-retics On ([2]; pulse therapy, patient HbSS, 9 weeks, Base 0.7): 6.7 | F-cells On ([2]; pulse therapy, patient HbSS, 9 weeks, Base 15): 0.5 | Increase Total Hgb ([2]; pulse therapy, patient HbSS, 11 weeks): +1.0 g/dl | Percent HbF On ([2]; pulse therapy, patient HbSS, 11 weeks, Base 3): 24% | F-retics On ([2]; pulse therapy, patient HbSS, 11 weeks, Base 18): 25 | F-cells On ([2]; pulse therapy, patient HbSS, 11 weeks, Base 28): 58 | Increase Total Hgb ([2]; pulse therapy, patient HbSS, 15 weeks): +2.0 g/dl | Percent HbF On ([2]; pulse therapy, patient HbSS, 15 weeks, Base 6.9): 22% | F-retics On ([2]; pulse therapy, patient HbSS, 15 weeks, Base 12.6): 24 | F-cells On ([2]; pulse therapy, patient HbSS, 15 weeks, Base 23): 59 | Increase Total Hgb ([2]; pulse therapy, patient HbSS, 18 weeks): +2.0 g/dl | Percent HbF On ([2]; pulse therapy, patient HbSS, 18 weeks, Base 8): 35% | F-retics On ([2]; pulse therapy, patient HbSS, 18 weeks, Base 35): 46 | F-cells On ([2]; pulse therapy, patient HbSS, 18 weeks, Base 50): 65 | Increase Total Hgb ([2]; pulse therapy, patient HbSS, 28 weeks): +1.0 g/dl | Percent HbF On ([2]; pulse therapy, patient HbSS, 28 weeks, Base 6): 29% | F-retics On ([2]; pulse therapy, patient HbSS, 28 weeks, Base 18): 36 | F-cells On ([2]; pulse therapy, patient HbSS, 28 weeks, Base 42): 56 | Non-∀/∀* On (non-α: α globin chain synthesis ratios) ([2]; pulse therapy, patient frameshift-5, 24 weeks, Base 0.5): 0.75 | F-cells On ([2]; pulse therapy, patient frameshift-5, 24 weeks, Base 100): 100 | Increase in Total Hgb ([2]; pulse therapy, patient β-39-87, 68 weeks): 3.6 g/dL | Non-∀/∀* On (non-α: α globin chain synthesis ratios) ([2]; pulse therapy, patient β-39-87, 68 weeks, Base 0.6): 1.1 | F-cells On ([2]; pulse therapy, patient β-39-87, 68 weeks, Base 29): 100 | Increase in Total Hgb ([2]; pulse therapy, patient β-39, 7 weeks): 3.0 g/dL | Non-∀/∀* On (non-α: α globin chain synthesis ratios) ([2]; pulse therapy, patient β-39, 7 weeks, Base 0.4): 0.9 | F-cells On ([2]; pulse therapy, patient β-39, 7 weeks, Base 100): 100 | Increase in Total Hgb ([2]; pulse therapy, patient βIVS I-1, 4 weeks): 2.1 g/dL | Non-∀/∀* On (non-α: α globin chain synthesis ratios) ([2]; pulse therapy, patient βIVS I-1, 4 weeks, Base 0.5): 0.9 | F-cells On ([2]; pulse therapy, patient βIVS I-1, 4 weeks, Base 100): 100 | Non-∀/∀* On (non-α: α globin chain synthesis ratios) ([2]; pulse therapy, patient βIVS II, 33 weeks, Base 0.5): 0.7 | F-cells On ([2]; pulse therapy, patient βIVS II, 33 weeks, Base 10): 16 | patients with desired hematologic responses ([2]; pulse therapy, sickle cell and beta thalassemia patients): 8 of 12 | adverse side effects ([2]; up to 17 months of home therapy and 350 weeks of patient treatment): No significant adverse side effects | Hb F responses ([2]; weekly therapy): 4-10% | patients with biochemical (Hb F) responses ([2]; weekly therapy): 8/10 | patients with biochemical increases in fetal globin expression ([2]; weekly therapy): 8/11 | rises in total hemoglobin, mean ([2]; weekly therapy): 1.6 gm/dl | increases in total Hb above baseline levels ([2]; weekly therapy, in 6/10): 1-4 gram/dl | Comments [2, 5]: response declined | Increase in Total Hgb [2, 5]: +2.0 gm/dl | F-retics On ([2]; weekly therapy, patient Hb SS, 24 weeks, Base 12.7): 35.3 | Comments ([2]; weekly therapy, patient HbE/?, 9 weeks): transfusions cont. | F-retics On ([2]; weekly therapy, patient HbE/?, 9 weeks, Base 42): 52.7 | Comments ([2]; weekly therapy, patient HbS, β-39, 6 weeks): transfusions cont. | F-retics On ([2]; weekly therapy, patient HbS, β-39, 6 weeks, Base 4): 20 | Comments [2, 6]: response declined | Increase in Total Hgb [2, 6]: +1.0 gm/dl | F-retics On ([2]; weekly therapy, patient HbSS, 4 weeks, Base 14): 30.7 | Comments [2, 7]: response declined | Increase in Total Hgb [2, 7]: +1.0 gm/dl | F-retics On ([2]; weekly therapy, patient frameshift 5, 5 weeks, Base 0.5): 1 | Comments ([2]; weekly therapy, patient β(-39-39), 8 weeks): AIHA, trans. cont. | F-retics On ([2]; weekly therapy, patient β(-39-39), 8 weeks, Base 60): 77 | Comments [2, 8]: plateaued | Increase in Total Hgb [2, 8]: 1.5 gm/dl | F-retics On ([2]; weekly therapy, patient β-39,-39, 8 weeks, Base 76): 68 | Increase in Total Hgb ([2]; weekly therapy, patient β-39-87, 16 weeks): +2.3 gm/dl | F-retics On ([2]; weekly therapy, patient β-39-87, 16 weeks, Base 64.7): 67.3 | Comments [2, 9]: response declined | Increase in Total Hgb [2, 9]: +4.3 gm/dl | F-retics On ([2]; weekly therapy, patient βIVS I, 1-6, 40 weeks, Base 56): 75 | Increase in Total Hgb ([2]; weekly therapy, patient βIVS II-745, 7 weeks): 3 gm/dl | F-retics On ([2]; weekly therapy, patient βIVS II-745, 7 weeks, Base 4): 16 | rises in total hemoglobin, mean ([2]; weekly therapy, the 6 responsive patient (6/9 treated)): 2.4 gm/dl | percent total HbF ([3]; conventional treatment, after 150 days): about 10% | percent total HbF ([3]; conventional, 750 mg/kg infusion 10-16 hours per day, 5 days/week, from 3%): 15-18% | percent total fetal hemoglobin ([3]; pulse, 500 to 750 mg/kg for 4 days, 10 days withheld, about 5 months): over 20%
